In patent US12577206B2 (BRISTOL-MYERS SQUIBB COMPANY, priority 2020, dated 2026):

Experiments:
[1] = molecular target: T1, human FPR2 (Homo sapiens, UniProt P25090); experiment: FPR2 cyclic adenosine monophosphate (cAMP) assay; type: cell-based; details: CHO cells overexpressing human FPR2; forskolin 5 μM; inhibition of cAMP production; HTRF; read-out: hFPR2 cAMP2 EC50
T1 sequence (P25090 1-351): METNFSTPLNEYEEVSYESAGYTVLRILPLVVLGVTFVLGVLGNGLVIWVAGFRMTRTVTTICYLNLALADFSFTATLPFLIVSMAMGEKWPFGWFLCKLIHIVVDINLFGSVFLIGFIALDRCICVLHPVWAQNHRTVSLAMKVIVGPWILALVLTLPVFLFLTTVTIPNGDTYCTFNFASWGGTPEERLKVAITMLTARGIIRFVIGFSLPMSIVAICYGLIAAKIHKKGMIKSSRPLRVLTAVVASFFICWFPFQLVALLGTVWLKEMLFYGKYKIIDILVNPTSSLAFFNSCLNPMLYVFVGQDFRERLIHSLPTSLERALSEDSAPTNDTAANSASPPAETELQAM
How it was run: (§1)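 CHO/hFPR1 4,000 cells/well, forskolin 10 μM final; CHO/hFPR2 2,000 cells/well, forskolin 5 μM final. IBMX 200 μM, DMSO 1%, DPBS + Ca/Mg + 0.1% BSA, 30 min rt. HTRF cAMP; 4-PL fit.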

[2] = molecular target: T2, human FPR1 (Homo sapiens, UniProt P21462); experiment: FPR1 cyclic adenosine monophosphate (cAMP) assay; type: cell-based; details: CHO cells overexpressing human FPR1; forskolin 10 μM; inhibition of cAMP production; HTRF; read-out: hFPR1 cAMP2 EC50
T2 sequence (P21462 1-350): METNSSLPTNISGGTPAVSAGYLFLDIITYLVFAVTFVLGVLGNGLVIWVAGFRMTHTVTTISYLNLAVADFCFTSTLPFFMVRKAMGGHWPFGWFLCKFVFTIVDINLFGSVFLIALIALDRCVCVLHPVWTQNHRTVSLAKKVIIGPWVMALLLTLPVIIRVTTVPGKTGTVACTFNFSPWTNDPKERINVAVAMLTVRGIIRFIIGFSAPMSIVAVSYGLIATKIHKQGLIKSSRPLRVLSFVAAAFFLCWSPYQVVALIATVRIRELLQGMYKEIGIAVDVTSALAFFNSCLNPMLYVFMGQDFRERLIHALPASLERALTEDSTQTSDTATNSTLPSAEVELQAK
How it was run: as §1

Row | Compound | EC50 [1] [nM] | EC50 [2] [nM]
1 | COc1cc(F)c(-c2c(NC(=O)c3ccc(OC(F)F)cc3)c(=O)n(-c3cccc(OCCO)n3)n2C)c(F)c1 [Example 333, N-(5-(2,6-Difluoro-4-methoxyphenyl)-2-(6-(2-hydroxyethoxy)pyridin-2-yl)-1-methyl-3-oxo-2,3-dihydro-1H-pyrazol-4-yl)-4-(difluoromethoxy)benzamide] | 14 | 1300
2 | COc1cc(F)c(-c2c(NC(=O)c3ccc(OC(F)F)cc3)c(=O)n(-c3cc(CO)cc(OCCO)n3)n2C)c(F)c1 [Example 336, N-(5-(2,6-Difluoro-4-methoxyphenyl)-2-(6-(2-hydroxyethoxy)-4-(hydroxymethyl)pyridin-2-yl)-1-methyl-3-oxo-2,3-dihydro-1H-pyrazol-4-yl)-4-(difluoromethoxy)benzamide] | 24 | > 10000
3 | COc1cc(OCC2CCS(=O)(=O)CC2)nc(-n2c(=O)c(NC(=O)c3ccc(OC(F)F)cc3)c(-c3c(F)cc(OC)cc3F)n2C)c1 [Example 337, N-(5-(2,6-Difluoro-4-methoxyphenyl)-2-(6-((1,1-dioxidotetrahydro-2H-thiopyran-4-yl)methoxy)-4-methoxypyridin-2-yl)-1-methyl-3-oxo-2,3-dihydro-1H-pyrazol-4-yl)-4-(difluoromethoxy)benzamide] | 15 | > 10000
4 | COc1cc(OCC2CCCO2)nc(-n2c(=O)c(NC(=O)c3ccc(OC(F)F)cc3)c(-c3c(F)cc(OC)cc3F)n2C)c1 (centres unmarked) [Example 339, N-(5-(2,6-Difluoro-4-methoxyphenyl)-2-(4-methoxy-6-((tetrahydrofuran-2-yl)methoxy)pyridin-2-yl)-1-methyl-3-oxo-2,3-dihydro-1H-pyrazol-4-yl)-4-(difluoromethoxy)benzamide] | 8 | > 10000
5 | COc1cc(C2CCCN(CCO)C2)nc(-n2c(=O)c(NC(=O)c3ccc(OC(F)F)cc3)c(-c3c(F)cc(OC)cc3F)n2C)c1 (centres unmarked) [Example 340, N-(5-(2,6-Difluoro-4-methoxyphenyl)-2-(6-(1-(2-hydroxyethyl)piperidin-3-yl)-4-methoxypyridin-2-yl)-1-methyl-3-oxo-2,3-dihydro-1H-pyrazol-4-yl)-4-(difluoromethoxy)benzamide] | 10 | > 10000
6 | COc1cc(F)c(-c2c(NC(=O)c3ccc(OC(F)F)cc3)c(=O)n(-c3cc(C#N)cc(C(F)(F)F)n3)n2C)c(F)c1 [Example 341, N-(2-(4-Cyano-6-(trifluoromethyl)pyridin-2-yl)-5-(2,6-difluoro-4-methoxyphenyl)-1-methyl-3-oxo-2,3-dihydro-1H-pyrazol-4-yl)-4-(difluoromethoxy)benzamide] | 10 | 2600
7 | COc1cc(C2CCCNC2)nc(-n2c(=O)c(NC(=O)c3ccc(OC(F)F)cc3)c(-c3c(F)cc(OC)cc3F)n2C)c1 (centres unmarked) [Example 346, N-(5-(2,6-Difluoro-4-methoxyphenyl)-2-(4-methoxy-6-(piperidin-3-yl)pyridin-2-yl)-1-methyl-3-oxo-2,3-dihydro-1H-pyrazol-4-yl)-4-(difluoromethoxy)benzamide] | 5 | > 10000
8 | COc1cc(F)c(-c2c(NC(=O)c3ccc(OC(F)F)cc3)c(=O)n(-c3cc(OCCO)cc(C(F)(F)F)n3)n2C)c(F)c1 [Example 348, N-(5-(2,6-Difluoro-4-methoxyphenyl)-2-(4-(2-hydroxyethoxy)-6-(trifluoromethyl)pyridin-2-yl)-1-methyl-3-oxo-2,3-dihydro-1H-pyrazol-4-yl)-4-(difluoromethoxy)benzamide] | 20 | 2200
9 | COc1cc(F)c(-c2c(NC(=O)c3ccc(OC(F)F)cc3)c(=O)n(-c3cc(OCC4(C)COC4)cc(C(F)(F)F)n3)n2C)c(F)c1 [Example 349, N-(5-(2,6-Difluoro-4-methoxyphenyl)-1-methyl-2-(4-((3-methyloxetan-3-yl)methoxy)-6-(trifluoromethyl)pyridin-2-yl)-3-oxo-2,3-dihydro-1H-pyrazol-4-yl)-4-(difluoromethoxy)benzamide] | 22 | 94
10 | COc1cc(OCC2CCCO2)nc(-n2c(=O)c(NC(=O)c3ccc(OC(F)F)cc3)c(-c3c(F)cc(OC)cc3F)n2C)c1 (centres unmarked) [Example 350, N-(5-(2,6-Difluoro-4-methoxyphenyl)-2-(4-methoxy-6-((tetrahydrofuran-2-yl)methoxy)pyridin-2-yl)-1-methyl-3-oxo-2,3-dihydro-1H-pyrazol-4-yl)-4-(difluoromethoxy)benzamide] | 9 | > 10000

Now from value to compound:

Row | EC50 [1] [nM] | EC50 [2] [nM] | Compound
11 | 3 | > 10000 | COc1cc(F)c(-c2c(NC(=O)c3ccc(OC(F)F)cc3)c(=O)n(-c3cc(C)cc(OCCO)n3)n2C)c(F)c1 [Example 331, N-(5-(2,6-Difluoro-4-methoxyphenyl)-2-(6-(2-hydroxyethoxy)-4-methylpyridin-2-yl)-1-methyl-3-oxo-2,3-dihydro-1H-pyrazol-4-yl)-4-(difluoromethoxy)benzamide]
12 | 3 | > 10000 | COc1cc(OCCO)nc(-n2c(=O)c(NC(=O)c3ccc(OC(F)F)cc3)c(-c3c(F)cc(OC)cc3F)n2C)c1 [Example 332, N-(5-(2,6-Difluoro-4-methoxyphenyl)-2-(6-(2-hydroxyethoxy)-4-methoxypyridin-2-yl)-1-methyl-3-oxo-2,3-dihydro-1H-pyrazol-4-yl)-4-(difluoromethoxy)benzamide]
13 | 3 | > 10000 | COc1cc(OCCS(C)(=O)=O)nc(-n2c(=O)c(NC(=O)c3ccc(OC(F)F)cc3)c(-c3c(F)cc(OC)cc3F)n2C)c1 [Example 335, N-(5-(2,6-Difluoro-4-methoxyphenyl)-2-(4-methoxy-6-(2-(methylsulfonyl)ethoxy)pyridin-2-yl)-1-methyl-3-oxo-2,3-dihydro-1H-pyrazol-4-yl)-4-(difluoromethoxy)benzamide]
14 | 2 | > 10000 | COc1cc(C2CCCN(CCO)C2)nc(-n2c(=O)c(NC(=O)c3ccc(OC(F)F)cc3)c(-c3c(F)cc(OC)cc3F)n2C)c1 (centres unmarked) [Example 338, N-(5-(2,6-Difluoro-4-methoxyphenyl)-2-(6-(1-(2-hydroxyethyl)piperidin-3-yl)-4-methoxypyridin-2-yl)-1-methyl-3-oxo-2,3-dihydro-1H-pyrazol-4-yl)-4-(difluoromethoxy)benzamide]
15 | 2 | > 10000 | COc1cc(C2CCCN(C)C2)nc(-n2c(=O)c(NC(=O)c3ccc(OC(F)F)cc3)c(-c3c(F)cc(OC)cc3F)n2C)c1 (centres unmarked) [Example 342, N-(5-(2,6-Difluoro-4-methoxyphenyl)-2-(4-methoxy-6-(1-methylpiperidin-3-yl)pyridin-2-yl)-1-methyl-3-oxo-2,3-dihydro-1H-pyrazol-4-yl)-4-(difluoromethoxy)benzamide]
16 | 1 | > 10000 | COc1cc(C2CCCN(C)C2)nc(-n2c(=O)c(NC(=O)c3ccc(OC(F)F)cc3)c(-c3c(F)cc(OC)cc3F)n2C)c1 (centres unmarked) [Example 343, N-(5-(2,6-Difluoro-4-methoxyphenyl)-2-(4-methoxy-6-(1-methylpiperidin-3-yl)pyridin-2-yl)-1-methyl-3-oxo-2,3-dihydro-1H-pyrazol-4-yl)-4-(difluoromethoxy)benzamide]
17 | 2 | 2400 | COc1cc(OCC2(C)COC2)nc(-n2c(=O)c(NC(=O)c3ccc(OC(F)F)cc3)c(-c3c(F)cc(OC)cc3F)n2C)c1 [Example 344, N-(5-(2,6-Difluoro-4-methoxyphenyl)-2-(4-methoxy-6-((3-methyloxetan-3-yl)methoxy)pyridin-2-yl)-1-methyl-3-oxo-2,3-dihydro-1H-pyrazol-4-yl)-4-(difluoromethoxy)benzamide]
18 | 5 | > 10000 | COc1cc(C2CCOCC2)nc(-n2c(=O)c(NC(=O)c3ccc(OC(F)F)cc3)c(-c3c(F)cc(OC)cc3F)n2C)c1 [Example 345, N-(5-(2,6-Difluoro-4-methoxyphenyl)-2-(4-methoxy-6-(tetrahydro-2H-pyran-4-yl)pyridin-2-yl)-1-methyl-3-oxo-2,3-dihydro-1H-pyrazol-4-yl)-4-(difluoromethoxy)benzamide]
19 | 4 | > 10000 | COc1cc(C2CCCNC2)nc(-n2c(=O)c(NC(=O)c3ccc(OC(F)F)cc3)c(-c3c(F)cc(OC)cc3F)n2C)c1 (centres unmarked) [Example 347, N-(5-(2,6-Difluoro-4-methoxyphenyl)-2-(4-methoxy-6-(piperidin-3-yl)pyridin-2-yl)-1-methyl-3-oxo-2,3-dihydro-1H-pyrazol-4-yl)-4-(difluoromethoxy)benzamide]
